From patent publication US9943529B2, “Methods for reducing cellular proliferation and treating certain diseases” (BRIGHAM YOUNG UNIVERSITY, priority 2013, dated 2018)

Key:
Conditions in all cases: 10 μM, 48 hours
MCF7 = tested on: MCF7
786-0 = tested on: 786-0
HOP-62 = tested on: HOP-62
K-562 = test: NCI screen antiproliferative activity, sulforhodamine B, Leukemia panel; format: cell-based, human
UO-31 = tested on: UO-31
T-47D = tested on: T-47D
IGROV1 = tested on: IGROV1
NCI-H322M = tested on: NCI-H322M
HCT-15 = tested on: HCT-15
M14 = tested on: M14
MDA-MB-435 = tested on: MDA-MB-435
SF-539 = tested on: SF-539
RPMI-8226 = test: NCI screen antiproliferative activity, sulforhodamine B, Leukemia panel; format: cell-based, human
SF-268 = tested on: SF-268
SK-MEL-5 = test: NCI screen antiproliferative activity, sulforhodamine B, Melanoma panel; format: cell-based, human
ACHN = tested on: ACHN
A498 = test: NCI screen antiproliferative activity, sulforhodamine B, Renal Cancer panel; format: cell-based, human
Experimental: (§1) The antiproliferative activity of compounds were determined in the National Cancer Institute (NCI) screen (Drug. Dev. Res. 1995, 34, 91-109; J. Natl. Cancer Inst. 1990, 82, 1107-1112; Drug Dev. Res. 1995, 34, 91-109). For certain compounds, cells of approximately 60 different human cancer cell lines were incubated for 48 hours with five 10-fold dilutions of the tested compounds starting from 100 μM and then treated with sulforhodamine B dye. For other compounds, cells of approximately 60 different human cancer cell lines were incubated for 48 hours with a concentration of 10 μM test compound. The ratios of recorded optical densities relative to that of the control were plotted as a function of the common logarithm of the tested compound concentrations or growth percent (for single concentration tests). The interpolation between the points located above and below the 50% percentage growth provided 50% growth inhibition (GI50) values. Total growth inhibition (TGI) and 50% lethal concentrations (LC50) were also calculated using reported methods. A “-” means not tested and/or not-determined.

HCC-2998 = tested on: HCC-2998
SW-620 = test: NCI screen antiproliferative activity, sulforhodamine B, Colon Cancer panel; format: cell-based, human
MALME-3M = test: NCI screen antiproliferative activity, sulforhodamine B, Melanoma panel; format: cell-based, human
NCI/ADR-RES = test: NCI screen antiproliferative activity, sulforhodamine B, Ovarian Cancer panel; format: cell-based, human
Experimental: as §1

DU-145 = tested on: DU-145
HT29 = tested on: HT29
OVCAR-4 = tested on: OVCAR-4
PC-3 = tested on: PC-3
RXF 393 = tested on: RXF 393
HCT-116 = tested on: HCT-116
SK-OV-3 = tested on: SK-OV-3
SNB-19 = tested on: SNB-19
OVCAR-8 = tested on: OVCAR-8
COLO 205 = test: NCI screen antiproliferative activity, sulforhodamine B, Colon Cancer panel; format: cell-based, human
A549/ATCC = tested on: A549/ATCC
SK-MEL-28 = tested on: SK-MEL-28
MDA-MB-231/ATCC = tested on: MDA-MB-231/ATCC
SN12C = tested on: SN12C
OVCAR-3 = tested on: OVCAR-3
OVCAR-5 = tested on: OVCAR-5
NCI-H23 = tested on: NCI-H23
HOP-92 = tested on: HOP-92
SNB-75 = tested on: SNB-75
CCRF-CEM = test: NCI screen antiproliferative activity, sulforhodamine B, Leukemia panel; format: cell-based, human
Experimental: as §1

HL-60(TB) = test: as above; format: cell-based, human
Experimental: as §1

NCI-H522 = tested on: NCI-H522
NCI-H460 = tested on: NCI-H460
NCI-H226 = tested on: NCI-H226
MDA-MB-468 = test: NCI screen antiproliferative activity, sulforhodamine B, Breast Cancer panel; format: cell-based, human
Experimental: as §1

LOX IMVI = test: NCI screen antiproliferative activity, sulforhodamine B, Melanoma panel; format: cell-based, human
BT-549 = tested on: BT-549
UACC-62 = tested on: UACC-62
KM12 = test: NCI screen antiproliferative activity, sulforhodamine B, Colon Cancer panel; format: cell-based, human
MOLT-4 = test: NCI screen antiproliferative activity, sulforhodamine B, Leukemia panel; format: cell-based, human
HS 578T = test: NCI screen antiproliferative activity, sulforhodamine B, Breast Cancer panel; format: cell-based, human
SR = test: NCI screen antiproliferative activity, sulforhodamine B, Leukemia panel; format: cell-based, human
CAKI-1 = tested on: CAKI-1
TK-10 = tested on: TK-10

CCCCCN(CCCCC)CCC[C@@H](C)[C@H]1CC[C@H]2[C@@H]3[C@H](OCCCN)C[C@@H]4C[C@H](OCCCN)CC[C@]4(C)[C@H]3C[C@H](OCCCN)[C@]12C [CSA-90]
Growth Percent (MCF7): 74.77%
Growth Percent (786-0): 61.11%
Growth Percent (HOP-62): 48.28%
Growth Percent (K-562): −19.42%
Growth Percent (UO-31): 65.22%
Growth Percent (T-47D): 68.11%
Growth Percent (IGROV1): 29.55%
Growth Percent (NCI-H322M): 24.61%
Growth Percent (HCT-15): 72.31%
Growth Percent (M14): 42.81%
Growth Percent (MDA-MB-435): −13.61%
Growth Percent (SF-539): −21.94%
Growth Percent (RPMI-8226): −17.73%
Growth Percent (SF-268): 87.47%
Growth Percent (SK-MEL-5): 25.14%
Growth Percent (ACHN): 54.72%
Growth Percent (A498): 92.77%
Growth Percent (HCC-2998): 59.63%
Growth Percent (SW-620): 45.90%
Growth Percent (MALME-3M): 62.21%
Growth Percent (NCI/ADR-RES): 76.04%
Growth Percent (DU-145): 76.50%
Growth Percent (HT29): 24.49%
Growth Percent (OVCAR-4): 85.16%
Growth Percent (PC-3): 80.53%
Growth Percent (RXF 393): 87.11%
Growth Percent (HCT-116): 22.71%
Growth Percent (SK-OV-3): 93.22%
Growth Percent (SNB-19): 61.03%
Growth Percent (OVCAR-8): 55.32%
Growth Percent (COLO 205): 52.08%
Growth Percent (A549/ATCC): 55.21%
Growth Percent (SK-MEL-28): 27.91%
Growth Percent (MDA-MB-231/ATCC): 36.97%
Growth Percent (SN12C): 54.27%
Growth Percent (OVCAR-3): 107.13%
Growth Percent (OVCAR-5): 66.15%
Growth Percent (NCI-H23): 49.16%
Growth Percent (HOP-92): 50.03%
Growth Percent (SNB-75): 70.61%
Growth Percent (CCRF-CEM): 15.29%
Growth Percent (HL-60(TB)): −16.84%
Growth Percent (NCI-H522): 28.85%
Growth Percent (NCI-H460): 45.20%
Growth Percent (NCI-H226): 75.25%
Growth Percent (MDA-MB-468): 71.06%
Growth Percent (LOX IMVI): 3.00%
Growth Percent (BT-549): 54.97%
Growth Percent (UACC-62): 13.55%
Growth Percent (KM12): 22.46%
Growth Percent (MOLT-4): 41.11%
Growth Percent (HS 578T): 66.91%
Growth Percent (SR): 19.21%
Growth Percent (CAKI-1): 75.81%

CCCCCCCCCCCCCCCCNCCCC(C)C1CCC2C3C(OCCCN)CC4CC(OCCCN)CCC4(C)C3CC(OCCCN)C12C.Cl.Cl.Cl.Cl (stereo not shown) [CSA-92]
Growth Percent (MCF7): −44.27%
Growth Percent (786-0): −43.08%
Growth Percent (HOP-62): −49.53%
Growth Percent (K-562): −34.68%
Growth Percent (UO-31): −52.51%
Growth Percent (T-47D): −20.87%
Growth Percent (IGROV1): −41.76%
Growth Percent (NCI-H322M): −76.83%
Growth Percent (HCT-15): 7.08%
Growth Percent (M14): −28.70%
Growth Percent (MDA-MB-435): −28.31%
Growth Percent (SF-539): −68.05%
Growth Percent (RPMI-8226): −15.39%
Growth Percent (SF-268): −38.18%
Growth Percent (SK-MEL-5): 3.14%
Growth Percent (ACHN): −26.45%
Growth Percent (A498): −5.88%
Growth Percent (HCC-2998): −32.41%
Growth Percent (SW-620): −25.31%
Growth Percent (MALME-3M): −60.74%
Growth Percent (NCI/ADR-RES): −60.60%
Growth Percent (DU-145): −82.24%
Growth Percent (HT29): −40.97%
Growth Percent (OVCAR-4): −37.10%
Growth Percent (PC-3): −14.45%
Growth Percent (RXF 393): −41.21%
Growth Percent (HCT-116): −16.64%
Growth Percent (SK-OV-3): −45.67%
Growth Percent (SNB-19): −66.56%
Growth Percent (TK-10): −60.33%
Growth Percent (OVCAR-8): −48.90%
Growth Percent (COLO 205): −40.80%
Growth Percent (A549/ATCC): −57.98%
Growth Percent (SK-MEL-28): −64.73%
Growth Percent (MDA-MB-231/ATCC): −98.22%
Growth Percent (SN12C): −82.86%
Growth Percent (OVCAR-3): −10.46%
Growth Percent (OVCAR-5): −3.67%
Growth Percent (NCI-H23): −39.72%
Growth Percent (HOP-92): −33.16%
Growth Percent (SNB-75): −64.78%
Growth Percent (CCRF-CEM): −45.52%
Growth Percent (HL-60(TB)): 4.50%
Growth Percent (NCI-H522): −43.60%
Growth Percent (NCI-H460): −45.47%
Growth Percent (NCI-H226): −1.42%
Growth Percent (MDA-MB-468): −55.21%
Growth Percent (LOX IMVI): −60.40%
Growth Percent (BT-549): −26.02%
Growth Percent (UACC-62): −64.22%
Growth Percent (KM12): −24.28%
Growth Percent (MOLT-4): −33.70%
Growth Percent (HS 578T): −34.00%
Growth Percent (SR): 2.63%
Growth Percent (CAKI-1): −70.80%
